Our source for the IC50 values is patent US10155754B2, “Substituted 2-imino-1,3-thiazolidin-4-ones as N-arachidonoylethanolamine cellular uptake inhibitors” (UNIVERSITAT BERN, priority 2014, dated 2018).

Each structure is given as a SMILES string. Where only a bound is given, the exact number is not on record here.

The subject of the first assay is AEA cellular uptake (U937 cells). Put plainly: [3H]-AEA cellular uptake inhibition in U937 cells. It counts as cell-based. As to conditions: Homo sapiens, U-937, U937 cells, final 100 nM AEA with 0.5 nM [3H]-AEA, 15 min at 37° C.; read-out: AEA uptake IC50. As for the experimental part: [^3H]-AEA Cellular Uptake
Screening for AEA cellular uptake inhibition was performed in a semi-automated procedure: Pipetting and washing steps were performed by a Biomek3000 laboratory workstation. First, required amounts of U937 cells were centrifuged at 100×g for 5 min and resuspended in RPMI (37° C.) to a final concentration of 2×10^6 cells/mL. Then, 250 μL of cell suspension (0.5×10^6 cells per sample) were transferred into AquaSil™ silanized glass vials (Chromacol 1.1-MTV) in 96-well format. After addition of 5 μL vehicle (DMSO) or compounds the cells were incubated at 37° C. for 15 min. As positive controls OMDM-2 and UCM707 were used at 10 μM in each run. The ETI-T compounds were measured at up to 7 concentrations in triplicates from 100 pM-100 μM. After pre-incubation, a mixture of 0.5 nM [ethanolamine-1-^3H]-AEA, (60 Ci/mmol) and 99.5 nM of cold AEA (final 100 nM) was added and samples were incubated at 37° C. for another 15 min. The reaction was stopped by rapid filtration over UniFilter-96 GF/C filters (PerkinElmer) pre-soaked with PBS 0.25% BSA. Cells were washed three times with 100 μL ice-cold PBS buffer containing 1% fatty acid free BSA. After drying, 45 μL MicroScint 20 scintillation cocktail (PerkinElmer, Waltham, Mass., US) was added to the wells and the plate was sealed. Radioactivity was measured by liquid scintillation counting on a PerkinElmer Wallac Trilux MicroBeta 1450 during 2 min. Non-specific binding of [^3H]AEA (100 nM) to the glass vials was never higher than 10%. IC50 values were calculated by GraphPad® by non-linear regression using the built-in log(inhibitor) vs. response-variable slope (four parameters) function.
For the compound `O=C1/C(=C/c2ccc3[nH]cnc3c2)S/C(=N\c2ccccc2)N1CCCc1ccccc1` [04_N_K, (2Z,5Z)-5-((1H-benzo[d]imidazol-5-yl)methylene)-2-(phenylimino)-3-(3-phenylpropyl)thiazolidin-4-one], the IC50 was 727 nM.

As to `O=C1/C(=C/c2ccc3[nH]cnc3c2)S/C(=N\Cc2ccc(F)cc2)N1c1ccccc1` [04_P_N, (2Z,5Z)-5-((1H-benzo[d]imidazol-5-yl)methylene)-2-(4-fluorobenzylimino)-3-phenylthiazolidin-4-one], the IC50 turned out to be 1020 nM.

In the case of `O=C1/C(=C/c2ccc3[nH]cnc3c2)S/C(=N\Cc2cccnc2)N1c1ccccc1` [04_S_N, (2Z,5Z)-2-((pyridin-3-yl)methylimino)-5-((1H-benzo[d]imidazol-5-yl)methylene)-3-phenylthiazolidin-4-one], the IC50 turned out to be 878 nM. On to `O=C1/C(=C/c2ccc3[nH]cnc3c2)S/C(=N\CCc2ccccc2)N1c1ccccc1` [04_U_N, (2Z,5Z)-5-((1H-benzo[d]imidazol-5-yl)methylene)-2-(phenethylimino)-3-phenylthiazolidin-4-one], for which the IC50 was determined as 1400 nM. Same read-out and setting: the figure for `COCc1cccc(/C=C2\S/C(=N\Cc3ccccc3)N(CCCc3ccccc3)C2=O)c1` [15_C_K, (2Z,5Z)-5-(3-(methoxymethyl)benzylidene)-2-(benzylimino)-3-(3-phenylpropyl)thiazolidin-4-one] is 692 nM. Same read-out and setting: the figure for `O=C1/C(=C/c2ccc(CO)cc2)S/C(=N\Cc2ccccc2)N1CCc1ccccc1` [15_C_O, (2Z,5Z)-5-(4-(hydroxymethyl)benzylidene)-2-(benzylimino)-3-phenethylthiazolidin-4-one] is 1560 nM; for `COCc1cccc(/C=C2\S/C(=N\Cc3ccc(C(C)(C)C)cc3)N(c3ccccc3)C2=O)c1` [15_R_N, (2Z,5Z)-5-(3-(methoxymethyl)benzylidene)-2-(4-tert-butylbenzylimino)-3-phenylthiazolidin-4-one] it is greater than 10000 nM.

On to `COCc1cccc(/C=C2\S/C(=N\Cc3ccccc3Cl)N(c3ccccc3)C2=O)c1` [15_T_N, (2Z,5Z)-2-(2-chlorobenzylimino)-5-(3-(methoxymethyl)benzylidene)-3-phenylthiazolidin-4-one], for which the IC50 came out at 2640 nM. Turning to `COCc1cccc(/C=C2\S/C(=N\CCc3ccccc3)N(c3ccccc3)C2=O)c1` [15_U_N, (2Z,5Z)-5-(3-(methoxymethyl)benzylidene)-2-(phenethylimino)-3-phenylthiazolidin-4-one], the IC50 came out at 15600 nM. In the case of `CCCCCCCCCCCCN1C(=O)/C(=C/c2ccc(CO)cc2)S/C1=N\c1ccc(F)cc1` [22_B_V, (2Z,5Z)-5-(4-(hydroxymethyl)benzylidene)-2-(4-fluorophenylimino)-3-dodecylthiazolidin-4-one], the IC50 came out at 12500 nM. Still for that read-out and setting: the figure for `O=C1/C(=C/c2ccc(CO)cc2)S/C(=N\Cc2ccccc2)N1c1ccc(F)cc1` [22_C_B, (2Z,5Z)-5-(4-(hydroxymethyl)benzylidene)-2-(benzylimino)-3-(4-fluorophenyl)thiazolidin-4-one] is 2170 nM; for `O=C1/C(=C/c2ccc(CO)cc2)S/C(=N\Cc2ccccc2)N1Cc1ccccc1` [22_C_C, (2Z,5Z)-5-(4-(hydroxymethyl)benzylidene)-3-benzyl-2-(benzylimino)thiazolidin-4-one] it is 10400 nM; for `COc1ccc(N2C(=O)/C(=C/c3ccc(CO)cc3)S/C2=N\Cc2ccccc2)cc1` [22_C_F, (2Z,5Z)-5-(4-(hydroxymethyl)benzylidene)-2-(benzylimino)-3-(4-methoxyphenyl)thiazolidin-4-one] it is 592 nM. The same measure, in the same setting: the result for `CCCCN1C(=O)/C(=C/c2ccc(CO)cc2)S/C1=N\Cc1ccccc1` [22_C_G, (2Z,5Z)-5-(4-(hydroxymethyl)benzylidene)-2-(benzylimino)-3-butylthiazolidin-4-one] reads 1280 nM; that for `O=C1/C(=C/c2ccc(CO)cc2)S/C(=N\Cc2ccccc2)N1c1ccccc1` [22_C_N, (2Z,5Z)-5-(4-(hydroxymethyl)benzylidene)-2-(benzylimino)-3-phenylthiazolidin-4-one], 1660 nM; that for `Cc1ccc(/N=C2\S/C(=C\c3ccc(CO)cc3)C(=O)N2c2ccccc2)nc1` [22_D_N, (2Z,5Z)-5-(4-(hydroxymethyl)benzylidene)-2-(5-methylpyridin-2-ylimino)-3-phenylthiazolidin-4-one], 1450 nM. As to `C/N=C1\S/C(=C\c2ccc(CO)cc2)C(=O)N1c1ccccc1` [22_E_N, (2Z,5Z)-5-(4-(hydroxymethyl)benzylidene)-2-(methylimino)-3-phenylthiazolidin-4-one], the IC50 is greater than 10000 nM.

For `O=C1/C(=C/c2ccc(CO)cc2)S/C(=N\c2ccccc2)N1Cc1ccccc1` [22_N_C, (2Z,5Z)-5-(4-(hydroxymethyl)benzylidene)-3-benzyl-2-(phenylimino)thiazolidin-4-one], the IC50 turned out to be 657 nM.

`COc1ccc(N2C(=O)/C(=C/c3ccc(CO)cc3)S/C2=N\c2ccccc2)cc1` [22_N_F, (2Z,5Z)-5-(4-(hydroxymethyl)benzylidene)-3-(4-methoxyphenyl)-2-(phenylimino)thiazolidin-4-one]: the IC50 is greater than 10000 nM. Same read-out and setting: the result for `CCCCN1C(=O)/C(=C/c2ccc(CO)cc2)S/C1=N\c1ccccc1` [22_N_G, (2Z,5Z)-5-(4-(hydroxymethyl)benzylidene)-3-butyl-2-(phenylimino)thiazolidin-4-one] reads 1090 nM; that for `O=C1/C(=C/c2ccc(CO)cc2)S/C(=N\c2ccccc2)N1Cc1ccco1` [22_N_M, (2Z,5Z)-5-(4-(hydroxymethyl)benzylidene)-3-((furan-2-yl)methyl)-2-(phenylimino)thiazolidin-4-one], 1310 nM. On to `O=C1/C(=C/c2ccc(CO)cc2)S/C(=N\Cc2ccc(F)cc2)N1c1ccccc1` [22_P_N, (2Z,5Z)-5-(4-(hydroxymethyl)benzylidene)-2-(4-fluorobenzylimino)-3-phenylthiazolidin-4-one], for which the IC50 was found to be 500 nM. On the same count and under the same terms, the figure for `COc1ccc(C/N=C2\S/C(=C\c3ccc(CO)cc3)C(=O)N2c2ccccc2)cc1` [22_Q_N, (2Z,5Z)-5-(4-(hydroxymethyl)benzylidene)-2-(4-methoxybenzylimino)-3-phenylthiazolidin-4-one] is 713 nM.

The assay is the same for the next values; noted with them: U937 cells, final 100 nM AEA with 0.5 nM [3H]-AEA, 15 min at 37° C.; read-out: AEA uptake IC50.
For the compound `COCc1cccc(/C=C2\S/C(=N\Cc3ccccc3)N(c3ccccc3)C2=O)c1` [15_C_N, (2Z,5Z)-5-(3-(methoxymethyl)benzylidene)-2-(benzylimino)-3-phenylthiazolidin-4-], the IC50 stood at 1690 nM. Consider `O=C1/C(=C/c2ccc(CO)cc2)S/C(=N\Cc2ccccc2)N1CCCc1ccccc1` [22_C_K, (2Z,5Z)-5-(4-(hydroxymethyl)benzylidene)-2-(benzylimino)-3-(3-phenylpropyl)thiazolidin-4-], for which the IC50 came to 1430 nM. Still for that read-out and setting: the figure for `O=C1/C(=C/c2ccc(CO)cc2)S/C(=N\Cc2ccccc2)N1CCc1ccccc1` [22_C_O, (2Z,5Z)-5-(4-(hydroxymethyl)benzylidene)-2-(benzylimino)-3-phenethylthiazolidin-4-] is 1200 nM; for `O=C1/C(=C/c2ccc(CO)cc2)S/C(=N\c2ccccc2)N1CCCc1ccccc1` [22_N_K, (2Z,5Z)-5-(4-(hydroxymethyl)benzylidene)-2-(phenylimino)-3-(3-phenylpropyl)thiazolidin-4-] it is 861 nM.
